Test results reported in patent US5466829A, “Ginkgolide derivatives and a process for preparing them” (priority 1991, dated 1995).
Where two headings read alike, the source gives them in different places.

System: Platelet Activating Factor induced platelet aggregation
Assay: Platelet aggregation inhibiting effect of rabbit by PAF (platelet rich plasma, Chrono-log aggregometer)
Assay type: cell-based, New Zealand White Rabbit
Details: for IC50: read-out: IC50, 50% of the inhibition concentration, platelet aggregation inhibiting effect; for platelet aggregation inhibiting activity compared with Ginkgolide B: rabbit PRP, PAF-induced, comparison in words
Procedure: The blood gathering in the ear artery of the New Zealand White Rabbit of weight 3~3.5 kg was mixed with 3.8% sodium citrate solution at the ratio of 1:9. After centrifuging for 10 minutes at 1000 rpm, the upper Platelet Rich Plasma(PRP) layer was taken. Again after centrifuging for 10 minutes at 3000 rpm, the upper Platelet Poor Plasma(PPP) was taken.
After measuring the platelet figures of the PRP using the Coulter counter, the platelet figures was adjusted to 3×10^5 /μl by diluting with PPP.
The ginkgolide derivatives which were obtained from the above example 1 and 5~9 was investigated platelet aggregation inhibiting effect by that 270 μl of PRP and 30 μl of the derivative solution was treated using the Chrono-log aggregometer which the light tansmittance of PPP was fixed to 100% and the light tansmittance of PRP was fixed to 0% and then 30 μl of Platelet Activating Factor of 5×10^-9 M and 5×10^-8 M concentration was added.
Then, IC50, 50% of the inhibition concentration, of derivatives was searched.

[1] = Oryctolagus cuniculus, Platelet
[2] = rabbit PRP adjusted to 3×10^5 /μl platelets, aggregation induced by PAF of 5×10^-9 M and 5×10^-8 M
[3] = Oryctolagus cuniculus, Platelet, rabbit PRP adjusted to 3×10^5 /μl platelets, aggregation induced by PAF of 5×10^-9 M and 5×10^-8 M

Row | Compound | IC50 [1] | IC50 [2] | platelet aggregation inhibiting activity compared with Ginkgolide B | IC50 [3]
1 | C[C@H]1C(=O)OC2C1C13OC4OC(=O)C(O)C45C(C(C)(C)C)CC(OC1=O)C35C2O (stereo partly drawn) [formula (I-b), 3-dehydroxy-14-epi-Ginkgolide B] | 13000 nM |  |  | 
2 | 3-dihydroxy-1,10-methylenedioxy-14-epi-Ginkgolide B [formula (III)] |  | 6980 nM | low than the Ginkgolide B in its activity | 
3 | C[C@@H]1C(=O)OC2C3OCOC4C(=O)OC5OC6(C(=O)OC7CC(C(C)(C)C)C54C736)C21O (some centres unmarked) [formula (II), 1,10-methylenedioxy-Ginkgolide B] |  |  | low than the Ginkgolide B in its activity | 1050 nM
4 | 3-dehydroxy- 1,10-methylenedioxy-Ginkgolide B [formula (IV)] |  | 4950 nM | low than the Ginkgolide B in its activity | 
5 | C[C@@H]1C(=O)OC2C1C13OC4OC(=O)C(O)C45C(C(C)(C)C)CC(OC1=O)C35C2O (some centres unmarked) [formula (I-a), 3-dehydroxy-Ginkgolide B] | 2640 nM |  | low than the Ginkgolide B in its activity | 
6 | CC1C(=O)OC2C(O)C34C5CC(C(C)(C)C)C36C(OC(=O)C6O)OC4(C(=O)O5)C12O (centres unmarked) [Ginkgolide B, reference compound] |  |  |  | 427 nM
7 | C[C@@H]1C(=O)O[C@H]2C[C@@]34[C@H]5C[C@@H](C(C)(C)C)[C@]36[C@@H](OC(=O)[C@@H]6O)O[C@@]4(C(=O)O5)[C@]21O [Ginkgolide A, reference compound] | 1750 nM |  |  | 
